The values below come from patent US20100168085A1, “Dopamine and agonists and antagonists thereof for modulation of suppressive activity of CD4+CD25+ regulatory T cells” (YESA RESEARCH AND DEVELOPMENT CO. LTD. at the Weizmann …, priority 2003, published 2010).

Assay [1] relates to IL-10 production by Treg. The conditions noted are these: 10^−5 M; 24 h, 48 h and 72 h. As to the method: (x) Enzyme-linked immunosorbent assay. Treg or Teff (0.5×10^6 cells/ml) were cultured for 48 h in the presence of anti-CD3 and anti-CD28. After 48 h the cells were centrifuged and their supernatants were collected and sampled. Concentrations of IL-2 in the samples were determined by the use of sandwich enzyme-linked immunosorbent assay (ELISA) kits (R&D Systems, Minneapolis, Minn.). For detection of secreted IL-10 cells were centrifuged every 24 h and replaced with a fresh medium. Supernatants obtained from cells after 24, 48 and 72 h in culture were subjected to ELISA kit (Diaclone Research, Fleming, France). The plates were developed using a 3,3′,5,5′-tetramethyl-benzidine liquid substrate system (Sigma, St. Louis, Mo.). The reaction was stopped by adding 1M H3PO4. Results for each experiment were calculated as the amount of secreted cytokine per 1 ml of sample, after subtraction of the background levels of the medium.

Assay [2] has as its system phospho-ERK1/2 in Treg and Teff. As to the kind of experiment: ERK1/2 phosphorylation (intracellular FACS staining, Western blot). Type of assay: cell-based, mouse.
Description: (ix) FACS analysis of intracellular labeling of phosphorylated form of ERK. T-cell subpopulations were fixed in 1.5% formaldehyde for 10 min at room temperature, washed, resuspended with vortexing in cold 100% methanol, and incubated for 1 h at 4° C. The cells were then washed with PBS containing 1% bovine serum albumin (BSA) and resuspended in 100 μL of PBS/BSA, and 12.5 μL of anti-phosphoERK1 & 2 (BioSource) was added for 20 min at room temperature. The cells were then washed, resuspended in PBS, and analyzed by FACSCalibur (Becton-Dickinson). As a negative control we incubated the phospho-peptide for 20 min with its antibody and then added the mixture to T cells.
(xix) Western blotting. Cells were stimulated for 20 min with anti-CD3 and anti-CD28 antibodies in the presence or absence of dopamine or SKF-38393. Cell lysates were prepared using RIPA lysis buffer (50 mM Tris, pH 8; 0.1% SDS; 0.5% deoxycholate; 1% NP40; 500 mM NaCl; 10 mM MgCl2) and were then kept on ice for 10 min before being vortexed and centrifuged. Supernatants were collected and 5× sample buffer (containing 25 mM Tris pH 6.8, 2% sodium dodecyl sulfate (SDS), 10% glycerol, 0.1% bromophenol blue, 0.5 M β-mercaptoethanol) was added prior to boiling. Cell extracts were separated by SDS-PAGE (10% polyacrylamide), and blotted onto nitrocellulose. Activated ERK1/2 was detected by probing blots with a 1:30,000 dilution of monoclonal antibody. Total ERK protein was detected by using a 1:10,000 dilution of a polyclonal rabbit antibody. The blots were developed by horseradish peroxidase-conjugated anti-mouse or anti-rabbit Fab and ECL (Amersham). Signals were quantified using NIH Image 1.62.
Treg were activated for 20 min in the presence or absence of dopamine (10^−5 M), and were then subjected to intracellular phosphoprotein staining (Perez and Nolan 2002) and analyzed by flow cytometry. […] As a measure of the background nonspecific staining of the phosphorylated ERK we used a specific peptide of phospho-ERK, which competes for binding of the antibody. The intracellular staining procedure for phospho-ERK detection by FACS was validated by the use of Teff incubated with 20 μM phorbol 12-myristate 13-acetate (PMA), known to stimulate the activity of protein kinase C (PKC) (data not shown).
The subject of assay [3] is CD44 expression in Treg and Teff. As to the method:
(§1) To verify that the effect of dopamine on adhesion of Treg is exerted through the ERK1/2 pathway, we incubated Treg with the ERK1/2 signaling pathway inhibitor PD98059 before carrying out the adhesion assay. […] Since interaction of T cells with CSPG is mediated in part by the CD44 receptor (Henke et al., 1996), and in light of the known dependence of CD44 expression on the ERK signaling pathway, it was conceivable that dopamine might affect the expression of CD44 in Treg.

For assay [4], the system named is LFA-1, I-CAM, and V-CAM in Treg. Conditions: data not shown. As to the method:
as §1

Assay [5] concerns BALB/c mice, optic nerve crush injury. Conditions: 0.4 mg/kg immediately after severe optic nerve crush, two weeks later; vehicle 789±23. From the text: (iv) Retrograde labeling of retinal ganglion cells. Mice were anesthetized and placed in a stereotactic device. The skull was exposed and kept dry and clean. The bregma was identified and marked. The designated point of injection was at a depth of 2 mm from the brain surface, 2.92 mm behind the bregma in the anteroposterior axis and 0.5 mm lateral to the midline. A window was drilled in the scalp above the designated coordinates in the right and left hemispheres. The neurotracer dye FluoroGold (5% solution in saline; Fluorochrome, Denver, Colo.) was applied (1 μL, at a rate of 0.5 μL/min in each hemisphere) using a Hamilton syringe, and the skin over the wound was sutured.
(xxi) Assessment of mouse retinal ganglion cell survival. Mice were given a lethal dose of pentobarbitone (170 mg/kg). Their eyes were enucleated and the retinas were detached and prepared as flattened whole mounts in 4% paraformaldehyde solution. Labeled cells from 4-6 selected fields of identical size (0.7 mm^2) were counted. The selected fields were located at approximately the same distance from the optic disk (0.3 mm) to overcome the variation in RGC density as a function of distance from the optic disk. Fields were counted under the fluorescence microscope (magnification ×800) by observers blinded to the identity of the retinas. The average number of RGCs per field in each retina was calculated.

In assay [6] the test system is CXCR-4 and CCR-8 mRNA in Treg. The conditions noted are these: data not shown.

As to `NCCc1ccc(O)c(O)c1` [dopamine, 3,4-dihydroxyphenethylamine], the “Amount of IL-10 in media of Treg” value in assay [1] is given as “significant decrease”. Moreover, in assay [2] (10^−5 M, activation 20 min), the “Phosphorylated ERK in activated Treg, flow cytometry” value was “Significantly less phosphorylated ERK”. For the same molecule, the “Phospho-ERK1/2 levels in Teff, Western blot” value in assay [2] (activation 20 min) is “did not cause a significant change”. Moreover, the “Phospho-ERK1/2 in activated Treg, Western blot” value in assay [2] (activation with anti-CD3 and anti-CD28 for 20 min) was “down-regulated”. In addition, the “CD44 immunoreactivity in Treg” value in assay [3] (activated 24 h, 2 h with dopamine) was “decreased CD44 immunoreactivity”. The “CD44 expression in Teff” value in assay [3] (after incubation with dopamine) is on record as “not affected”. In addition, the “LFA-1, I-CAM, V-CAM in Treg” value in assay [4] is given as “did not show any dopamine-related changes”. Moreover, in assay [5], the “Viable neurons in retina (mean±SD)” value is given as 1110±56 /mm^2. For the same molecule, the “Expression of mRNA for CXCR-4 and CCR-8 in Treg” value in assay [6] is given as “did not change”.
